Columns and labels:
[1] = Stability (physicochemical properties, Table 1)
Description: (§1) Die physikalisch-chemisch sowie spektroskopischen Eigenschaften von Cillianon lassen sich wie folgt zusammenfassen: Tabelle 1

[2] = target: T1, humanen IL-4 Rezeptor (huIL-4R/Fc) (Homo sapiens, UniProt P24394); test: Cell-free huIL-4 binding assay (IL-4 receptor test, ELISA with receptor/Fc fusion protein and biotinylated ligand); conditions: huIL-4R/Fc 500 ng/ml; biotinylated huIL-4 100 ng/ml; 1 h room temperature; PBSA with 5 % DMSO; Abbildung 3
T1 construct: die aus der extrazellulären Region von normalerweise membranständigen Rezeptoren bestehen
T1 sequence (P24394 26-232 limits assumed): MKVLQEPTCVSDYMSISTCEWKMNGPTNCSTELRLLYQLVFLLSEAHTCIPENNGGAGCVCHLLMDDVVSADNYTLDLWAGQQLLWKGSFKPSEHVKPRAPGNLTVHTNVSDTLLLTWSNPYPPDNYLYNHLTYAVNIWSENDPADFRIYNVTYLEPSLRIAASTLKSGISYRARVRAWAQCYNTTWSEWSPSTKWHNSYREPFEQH
Description: Aus der EP 488 170 A1 sind zellfreie Bindungsteste bekannt. Für ihre Durchführung werden rekombinante chimäre Proteine verwendet, die aus der extrazellulären Region von normalerweise membranständigen Rezeptoren bestehen, an deren Carboxyterminus die Fc-Region einer schweren Immunglobulinkette bestehend aus Hinge-, CH2- und CH3-Domäne fusioniert wurde. Diese sogenannten Rezeptor/Fc-Fusionsproteine können unter Erhalt der spezifischen Rezeptorbindungsaktivität an Festphasen gebunden werden, die beispielsweise mit monoklonalen Antikörpern gerichtet gegen den Fc-Teil vorbeschichtet wurden. Als Festphase wurden für dieses Beispiel ®Nunc Typ B ELISA-Platten verwendet. Rezeptor/Fc-Fusionsproteine gelöst in PBS enthaltend 10 mg/ml BSA (PBSA) wurden an diese vorbehandelten Platten gebunden (huIL-4R/Fc: 500 ng/ml; muIL-4R/Fc: 250 ng/ml; huIL-1R/Fc: 125 ng/ml; 1 h bei Raumtemperatur). Nach Waschen wurden die Peptide beziehungsweise die jeweiligen spezifischen unmarkierten Liganden (huIL-4R/Fc: huIL-4; muIL-4R/Fc: muIL-4; huIL-1R/Fc:huIL-1ra) in variierenden Konzentrationen und danach die spezifischen Liganden in biotinylierender Form in einer festen Konzentration zugegeben (100 ng/ml). Die Inkubation erfolgte 1 h bei Raumtemperatur in PBSA enthaltend 5 % DMSO. Nach Waschen erfolgte eine Inkubation mit Streptavidin/Peroxidase (Amersham, 1:2000 in PBSA) für 20 min bei Raumtemperatur. […]

[3] = Solubility (physicochemical properties, Table 1); conditions: in Methanol, Acetonitril, Chloroform und Benzol
Description: as §1

## Cc1cc(O)c2c3c(c(O)c4c(c13)OC(C)C4(C)C)C(=O)C(O)(O)C2=O (centres unmarked) [Cillianon]
[1]; im sauren Milieu
  Stabilität: stabil
[1]; in wässrigem Alkali
  Stabilität: unbeständig
[1]; unter Lichteinwirkung
  Stabilität: unbeständig
[2]
  IC50: 55.8 µM
[3]
  Löslichkeit: lösliche

Source: patent EP0742215A1, “Cillianon, antibiotic from penicillin spe., and chemical derivatives thereof, method for their preparation and application” (HOECHST AKTIENGESELLSCHAFT, priority 1995, dated 1996)
